{
  "source": "patent US5373020A",
  "about": "“Substituted 5-(2-((2-aryl-2-hydroxyethyl)amino)propyl)-1,3-benzodioxoles” (American Cyanamid Company, priority 1993, dated 1994)",
  "key": {"β3-receptors": {"molecular_target": "T1, β3-receptors (Rattus norvegicus, UniProt P26255)", "T1 construct": "Rat epididymal fat pads were excised and placed in 0.9% saline; from tissue; host or cells: collagenase-isolated adipocytes from rat epididymal fat pads", "T1 sequence (P26255 whole entry)": "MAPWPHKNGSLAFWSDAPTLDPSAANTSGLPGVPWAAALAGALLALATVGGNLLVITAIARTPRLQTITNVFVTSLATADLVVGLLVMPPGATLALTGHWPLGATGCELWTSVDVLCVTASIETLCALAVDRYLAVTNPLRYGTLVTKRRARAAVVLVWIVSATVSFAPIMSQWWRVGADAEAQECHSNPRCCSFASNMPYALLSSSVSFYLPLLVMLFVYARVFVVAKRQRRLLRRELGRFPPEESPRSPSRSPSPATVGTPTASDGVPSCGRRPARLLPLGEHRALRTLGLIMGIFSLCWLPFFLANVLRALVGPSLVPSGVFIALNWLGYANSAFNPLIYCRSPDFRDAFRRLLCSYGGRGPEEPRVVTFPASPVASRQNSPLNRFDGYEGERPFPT", "assay": "Stimulation of adipocyte lipolysis (β3-effect)", "format": "cell-based", "experimental": "β-Adrenergic receptors can be divided into β1, β2 and β3 -subtypes. Activation of β1 -receptors invokes increases in heart rate while activation of β2 -receptors stimulates glycogen breakdown in muscle and thereby prevents glycogen synthesis. Activation of β3 -receptors stimulates lipolysis (the breakdown of adipose tissue triglycerides to glycerol and free fatty acids), and thereby promotes the loss of fat mass.\nThe β3 -effect of the compounds was determined by their ability to stimulate adipocyte lipolysis. Rat epididymal fat pads were excised and placed in 0.9% saline. Four grams of tissue were transferred to a flask with 20 ml of aerated Krebs-Henseleit bicarbonate (KHB) buffer containing 3% fatty acid-free bovine serum albumin to which 75 mg of crude bacterial collagenase (Worthington) had been added. The tissue was incubated for about 45 minutes at 37° C. with gentle shaking. The cells were then washed three times with two volumes of KHB buffer, filtered through two layers of gauze, and brought to a final volume of 80 ml with KHB buffer. One ml aliquots of the cell suspension were added to plastic test tubes containing the appropriate additions of vehicle or compound. The cells were gassed for 1 minute with 95% O2 -5% CO2, capped, and incubated at 37° C. with continuous shaking for a total of 30 minutes. The reaction was stopped by adding 0.1 ml of 30% perchloric acid and 0.1 ml of chloroform. After centrifugation, 0.5 ml of supernatant was transferred to another test tube and neutralized with 0.04 ml of 3M K2 CO3 -0.5M triethanolamine. The amount-of glycerol generated from the hydrolysis of endogenous triglycerides was determined in a coupled-enzyme spectrophotometric assay. […] The test tubes were incubated for 40 minutes at 37° C. with constant shaking. […] This value was corrected for the amount of NADH generated in the absence of glycerol by incubating another aliquot of the neutralized extract with the same assay mixture but without glycerokinase."}, "ob/ob mice": {"test_system": "ob/ob mice", "assay": "Plasma glucose, compound in chow, obese mice", "format": "in vivo, mouse (C57 B1/6J ob/ob)", "experimental": "The compounds of this invention were tested for hypoglycemic and anti-obesity activity according to the following procedure.\nObese mice (C57 B1/6J (ob/ob)), and/or diabetic mice (C57 B1/KsJ (db/db)) were obtained from Jackson Laboratories, Bar Harbor, Maine. Obese rats (fa/fa) were obtained from Charles River Laboratories, Wilmington, Mass. Obese mice were 8 weeks of age and diabetic mice were 9 weeks of age at the start of the test. Obese rats were 12-14 weeks of age at the start.\nThe test compounds were dissolved in methanol, mixed with powdered Purina rodent chow on a weight of compound to weight of chow basis and thoroughly dried.\nGroups of 6 control mice or rats received vehicle (methanol) treated chow.\n[…] Thus, a 40 g mouse, fed the test compound at a concentration of 0.02 percent of the diet, would receive a dose of 20 mg/kg/day if it ate 4 g of chow per day.\nThe mice or rats were weighed before the first treatment and once at the end of each indicated treatment period.\nBlood samples were collected before the first treatment and once at the end of each indicated treatment period by retro-orbital puncture using heparinized capillary tubes.\nPlasma was separated by centrifugation in a Beckman microfuge for 5 minutes. Plasma glucose concentrations were determined with the Beckman glucose analyzer which uses a glucose oxidase method."}},
  "note": "Where a name gives a salt, the structure may show the parent alone.",
  "data": [
    {"smiles": "COC(=O)C1(C(=O)OC)Oc2ccc(C[C@@H](C)NC[C@H](O)c3cccc(Cl)c3)cc2O1", "note": "(stereo in doubt) [CL1, (R* R*)-(±)-5-(2-((2-(3-chlorophenyl)-2-hydroxyethyl)amino)propyl)-1,3-benzodioxole-2,2-dicarboxylic acid, dimethyl ester hydrobromide]", "values": [
      {"measurement": "times more selective for lipolysis than prior art compound", "setting": "β3-receptors; CL2 vs BRL2, CL1 vs BRL1", "result": 3, "unit": "times"},
      {"measurement": "Relative Selectivity (CL/BRL), Atria", "setting": "β3-receptors; CL2 vs BRL2, CL1 vs BRL1, lipolysis over atria", "result": 3.1},
      {"measurement": "Relative Selectivity (CL/BRL), Gly. Syn.", "setting": "β3-receptors; CL2 vs BRL2, CL1 vs BRL1, lipolysis over glycogen synthesis", "result": 3.0},
      {"measurement": "Selectivity for Lipolysis over Atria ((EC50 - β1)/(EC50 - β3))", "setting": "β3-receptors; ratio EC50 β1 / EC50 β3", "result": 47},
      {"measurement": "Selectivity for Lipolysis over Gly. Syn. ((EC50 - β2)/(EC50 - β3))", "setting": "β3-receptors; ratio EC50 β2 / EC50 β3", "result": 27},
      {"measurement": "Plasma Glucose Levels", "setting": "ob/ob mice; dose 0.0005 % wt of chow, week 0 (before treatment)", "result": 270, "unit": "mg/100 ml"},
      {"measurement": "Plasma Glucose Levels", "setting": "ob/ob mice; dose 0.0005 % wt of chow, week 1", "result": 164, "unit": "mg/100 ml"},
      {"measurement": "Plasma Glucose Levels", "setting": "ob/ob mice; dose 0.0005 % wt of chow, week 4", "result": 179, "unit": "mg/100 ml"},
      {"measurement": "Plasma Glucose Levels", "setting": "ob/ob mice; dose 0.002 % wt of chow, week 0 (before treatment)", "result": 276, "unit": "mg/100 ml"},
      {"measurement": "Plasma Glucose Levels", "setting": "ob/ob mice; dose 0.002 % wt of chow, week 1", "result": 150, "unit": "mg/100 ml"},
      {"measurement": "Plasma Glucose Levels", "setting": "ob/ob mice; dose 0.002 % wt of chow, week 4", "result": 156, "unit": "mg/100 ml"},
      {"measurement": "Plasma Glucose Levels", "setting": "ob/ob mice; dose 0.005 % wt of chow, week 0 (before treatment)", "result": 237, "unit": "mg/100 ml"},
      {"measurement": "Plasma Glucose Levels", "setting": "ob/ob mice; dose 0.005 % wt of chow, week 1", "result": 143, "unit": "mg/100 ml"},
      {"measurement": "Plasma Glucose Levels", "setting": "ob/ob mice; dose 0.005 % wt of chow, week 4", "result": 157, "unit": "mg/100 ml"}
    ]}
  ]
}
